Assay results taken from patent US20240139211A1, “METHODS AND COMPOSITIONS FOR TREATING AMYOTROPHIC LATERAL SCLEROSIS” (Amylyx Pharmaceuticals, Inc., priority 2022, published 2024).
Like-named read-outs stand apart in the source and are kept apart here.

What was measured:
OAT3 [1] = target: T1, OAT3 (Homo sapiens, UniProt Q8TCC7); test: Inhibitor of OAT3, probe substrate uptake; settings: for potency estimated from few doses: read-out: Estimated IC50, OAT3; for Inhibition of OAT3 / Inhibitor of OAT3: two concentrations per test article
T1 sequence (Q8TCC7 1-542): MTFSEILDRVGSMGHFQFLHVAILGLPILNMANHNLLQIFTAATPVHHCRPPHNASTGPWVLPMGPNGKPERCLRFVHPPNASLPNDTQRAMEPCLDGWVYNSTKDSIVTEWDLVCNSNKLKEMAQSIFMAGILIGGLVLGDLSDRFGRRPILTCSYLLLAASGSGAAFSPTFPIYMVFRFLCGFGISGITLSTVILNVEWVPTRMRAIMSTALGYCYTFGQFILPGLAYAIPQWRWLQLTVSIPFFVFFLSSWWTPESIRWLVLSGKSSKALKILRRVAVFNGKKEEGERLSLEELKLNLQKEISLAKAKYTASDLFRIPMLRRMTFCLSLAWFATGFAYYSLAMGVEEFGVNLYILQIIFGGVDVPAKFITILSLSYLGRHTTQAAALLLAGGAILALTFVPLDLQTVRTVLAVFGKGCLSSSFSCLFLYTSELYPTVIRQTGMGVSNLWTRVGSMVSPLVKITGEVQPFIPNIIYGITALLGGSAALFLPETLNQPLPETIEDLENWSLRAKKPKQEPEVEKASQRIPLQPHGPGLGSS

CYP1A2 mRNA = test: in vitro; settings: human
CYP3A4 mRNA = test: CYP3A4 gene expression induction in hepatocyte cultures; settings: for Inducer of CYP3A4 (conclusion): gene expression and enzyme activity, three donors
OAT3 [2] = target: T1, OAT3; test: in vitro
P-gp = P-gp (Homo sapiens, UniProt P08183); test: Substrate of P-gp (Caco-2 cells, selective inhibitors)
Chain of P-gp (P08183 whole entry): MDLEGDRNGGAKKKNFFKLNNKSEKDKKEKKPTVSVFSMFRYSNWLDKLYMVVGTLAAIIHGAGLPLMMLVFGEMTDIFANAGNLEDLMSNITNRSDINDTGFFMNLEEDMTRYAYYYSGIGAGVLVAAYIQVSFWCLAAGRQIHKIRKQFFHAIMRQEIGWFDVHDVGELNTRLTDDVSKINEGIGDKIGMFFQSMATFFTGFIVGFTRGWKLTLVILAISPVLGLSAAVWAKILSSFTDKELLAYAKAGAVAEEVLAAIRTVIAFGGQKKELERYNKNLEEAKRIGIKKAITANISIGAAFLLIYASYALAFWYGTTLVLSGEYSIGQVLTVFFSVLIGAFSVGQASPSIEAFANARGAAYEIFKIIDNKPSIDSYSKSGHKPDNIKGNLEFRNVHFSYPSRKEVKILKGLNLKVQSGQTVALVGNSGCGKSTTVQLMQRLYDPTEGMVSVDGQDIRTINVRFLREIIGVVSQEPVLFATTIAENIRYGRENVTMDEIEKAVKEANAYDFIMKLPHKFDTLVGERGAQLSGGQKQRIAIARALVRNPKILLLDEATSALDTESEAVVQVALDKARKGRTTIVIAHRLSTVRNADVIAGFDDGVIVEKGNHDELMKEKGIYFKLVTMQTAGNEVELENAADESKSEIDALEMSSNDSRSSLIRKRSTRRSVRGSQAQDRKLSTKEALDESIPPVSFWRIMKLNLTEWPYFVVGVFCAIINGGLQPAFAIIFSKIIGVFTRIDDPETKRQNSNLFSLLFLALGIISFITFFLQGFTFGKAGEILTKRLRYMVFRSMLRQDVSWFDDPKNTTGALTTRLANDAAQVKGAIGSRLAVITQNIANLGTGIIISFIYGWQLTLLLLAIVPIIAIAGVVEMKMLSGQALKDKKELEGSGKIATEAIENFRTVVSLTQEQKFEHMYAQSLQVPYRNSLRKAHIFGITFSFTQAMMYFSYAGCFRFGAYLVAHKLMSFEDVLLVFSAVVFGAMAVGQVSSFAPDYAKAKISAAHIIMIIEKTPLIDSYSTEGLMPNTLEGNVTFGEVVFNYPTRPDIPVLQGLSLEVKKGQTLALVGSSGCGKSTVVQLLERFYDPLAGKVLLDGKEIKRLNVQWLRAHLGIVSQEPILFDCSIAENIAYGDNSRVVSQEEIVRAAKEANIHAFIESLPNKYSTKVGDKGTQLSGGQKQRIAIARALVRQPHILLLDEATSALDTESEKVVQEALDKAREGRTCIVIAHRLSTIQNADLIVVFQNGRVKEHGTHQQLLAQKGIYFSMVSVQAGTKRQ

MATE2K = MATE2K (Homo sapiens, UniProt Q86VL8); test: Inhibitor of MATE2-K, probe substrate uptake; settings: for Inhibition of MATE2-K / Inhibitor of MATE2-K: two concentrations per test article; for potency estimated from few doses: read-out: Estimated IC50, MATE2-K
Chain of MATE2K (Q86VL8 1-566 isoform Q86VL8-3): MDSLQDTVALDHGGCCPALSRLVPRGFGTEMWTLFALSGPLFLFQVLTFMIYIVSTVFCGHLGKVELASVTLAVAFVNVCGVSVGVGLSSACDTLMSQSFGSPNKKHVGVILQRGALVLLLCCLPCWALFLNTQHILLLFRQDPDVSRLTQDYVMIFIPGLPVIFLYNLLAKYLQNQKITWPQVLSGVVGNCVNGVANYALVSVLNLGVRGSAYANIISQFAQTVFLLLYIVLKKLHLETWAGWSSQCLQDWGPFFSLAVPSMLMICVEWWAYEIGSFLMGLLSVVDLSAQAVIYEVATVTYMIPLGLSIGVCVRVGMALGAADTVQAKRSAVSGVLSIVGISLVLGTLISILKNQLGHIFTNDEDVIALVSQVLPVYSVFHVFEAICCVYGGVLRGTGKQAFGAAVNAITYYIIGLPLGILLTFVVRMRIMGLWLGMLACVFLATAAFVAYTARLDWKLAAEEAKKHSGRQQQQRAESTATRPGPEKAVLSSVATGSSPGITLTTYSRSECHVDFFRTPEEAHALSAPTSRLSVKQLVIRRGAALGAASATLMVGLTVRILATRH

MATE1 [3] = target: T2, MATE1 (Homo sapiens, UniProt Q96FL8); test: in vitro
T2 sequence (Q96FL8 1-570): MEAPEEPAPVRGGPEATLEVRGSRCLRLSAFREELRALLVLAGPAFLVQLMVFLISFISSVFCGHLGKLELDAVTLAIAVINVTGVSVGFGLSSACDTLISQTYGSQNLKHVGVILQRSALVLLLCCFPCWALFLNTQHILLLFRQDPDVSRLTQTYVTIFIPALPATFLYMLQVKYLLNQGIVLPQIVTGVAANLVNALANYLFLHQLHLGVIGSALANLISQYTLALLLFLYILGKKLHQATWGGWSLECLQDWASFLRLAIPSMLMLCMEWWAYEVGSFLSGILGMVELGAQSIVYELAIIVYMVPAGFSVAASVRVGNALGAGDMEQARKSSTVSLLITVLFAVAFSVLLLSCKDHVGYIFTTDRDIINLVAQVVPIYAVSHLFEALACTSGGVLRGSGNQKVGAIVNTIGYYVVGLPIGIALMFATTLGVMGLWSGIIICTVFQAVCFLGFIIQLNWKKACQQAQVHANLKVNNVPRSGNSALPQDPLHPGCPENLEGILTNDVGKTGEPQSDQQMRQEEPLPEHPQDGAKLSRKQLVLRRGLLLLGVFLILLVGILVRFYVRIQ

BCRP = target: T3, BCRP (Homo sapiens, UniProt Q9UNQ0); test: Inhibitor of BCRP, 3H-estrone-3-sulfate efflux in Caco-2 cells
T3 sequence (Q9UNQ0 1-655): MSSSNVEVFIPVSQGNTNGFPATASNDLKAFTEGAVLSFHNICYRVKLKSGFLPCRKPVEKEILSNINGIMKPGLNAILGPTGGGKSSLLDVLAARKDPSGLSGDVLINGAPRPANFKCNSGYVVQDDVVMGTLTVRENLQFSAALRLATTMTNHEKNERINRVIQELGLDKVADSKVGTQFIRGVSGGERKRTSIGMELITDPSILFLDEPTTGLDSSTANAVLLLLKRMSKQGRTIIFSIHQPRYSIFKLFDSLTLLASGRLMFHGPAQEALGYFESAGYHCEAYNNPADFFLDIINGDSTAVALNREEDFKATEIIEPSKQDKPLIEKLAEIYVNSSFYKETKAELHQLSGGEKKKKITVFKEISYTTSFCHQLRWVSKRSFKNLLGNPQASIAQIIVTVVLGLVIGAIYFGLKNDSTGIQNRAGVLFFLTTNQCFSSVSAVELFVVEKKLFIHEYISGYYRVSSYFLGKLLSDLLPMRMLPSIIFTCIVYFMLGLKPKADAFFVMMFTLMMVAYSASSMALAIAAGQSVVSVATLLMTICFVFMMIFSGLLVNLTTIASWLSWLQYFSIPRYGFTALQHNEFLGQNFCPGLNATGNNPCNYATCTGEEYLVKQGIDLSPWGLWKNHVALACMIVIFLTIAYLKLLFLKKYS

human hepatocytes = test: Cytotoxicity of six test articles in hepatocyte cultures (MTS); settings: for Concentrations at which not hepatotoxic: Donor 1, 72±2 hours
CYP2B6 mRNA = test: CYP2B6 gene expression induction in hepatocyte cultures; settings: for EC50: read-out: EC50, CYP2B6 gene expression
hrCYP2C19 = hrCYP2C19 (Homo sapiens, UniProt P33261); test: CYP reaction phenotyping with hrCYP2C19 (% remaining); assay type: in vitro ADME; settings: for % Remaining of TA: hrCYP2C19 20 pmol CYP/mL, 5 μM TA, PB and TUDCA co-incubated
Chain of hrCYP2C19 (P33261 whole entry): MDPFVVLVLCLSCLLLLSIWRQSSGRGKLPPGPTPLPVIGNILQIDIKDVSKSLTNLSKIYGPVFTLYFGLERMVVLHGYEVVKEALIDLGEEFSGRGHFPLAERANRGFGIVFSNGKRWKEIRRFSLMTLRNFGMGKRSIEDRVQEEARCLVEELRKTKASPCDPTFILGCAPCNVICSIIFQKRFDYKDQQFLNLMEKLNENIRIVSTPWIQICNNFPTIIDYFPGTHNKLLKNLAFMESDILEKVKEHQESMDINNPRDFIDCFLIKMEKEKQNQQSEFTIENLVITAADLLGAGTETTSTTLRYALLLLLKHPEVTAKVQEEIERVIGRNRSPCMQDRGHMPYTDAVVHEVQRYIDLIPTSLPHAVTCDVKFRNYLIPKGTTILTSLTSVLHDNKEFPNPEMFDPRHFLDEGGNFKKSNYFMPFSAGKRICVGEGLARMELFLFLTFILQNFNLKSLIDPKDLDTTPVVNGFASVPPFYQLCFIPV

MATE1 [4] = target: T2, MATE1; test: Substrate of MATE1, uptake in HEK293 cells
Source text: Vector-transfected HEK cells were used as a control.

[5] = estimated from two concentrations
[6] = test article 1 and 10 μM, Caco-2 cells
[7] = Caco-2, two concentrations per test article
[8] = two concentrations per test article, Caco-2 cells
[9] = higher test concentration (UDCA: second assay)
[10] = lower test concentration (UDCA: second assay)

Molecule	potency estimated from few doses (OAT3 [1]; [5])	Inhibition of OAT3 (OAT3 [1])	Inhibitor of OAT3 (OAT3 [1])	Inducer of CYP3A4 (conclusion) (CYP3A4 mRNA)	potency estimated from few doses (OAT3 [2])	Substrate of P-gp (P-gp; Caco-2, 1 and 10 μM)	Substrate of P-gp (P-gp; [6])	Inhibition of MATE2-K (MATE2K)	Inhibitor of MATE2-K (MATE2K)	potency estimated from few doses (MATE1 [3])	Inhibitor of BCRP (BCRP; [7])	Inhibitor of BCRP (BCRP; [8])	Concentrations at which not hepatotoxic (human hepatocytes)	Emax, CYP2B6 gene expression (CYP2B6 mRNA; Donor 1)	Emax, CYP2B6 gene expression (CYP2B6 mRNA; Donor 2)	EC50 (CYP2B6 mRNA; Donor 2)	Remaining BCRP activity, % of the control (BCRP; [9])	Remaining BCRP activity, % of the control (BCRP; [10])	Substrate of MATE1 (MATE1 [4]; 1 and 10 μM)	Substrate of MATE1 (MATE1 [4]; test article 1 and 10 μM)	other results
C[C@H](CCC(=O)NCC(=O)O)[C@H]1CC[C@H]2[C@@H]3[C@@H](O)C[C@@H]4C[C@H](O)CC[C@]4(C)[C@H]3CC[C@]12C [Glycoursodeoxycholic acid, glycoursodeoxycholic acid]	< 100 µM	inhibited	Yes	did not meet the classification requirements to be identified as an inducer of CYP3A4	< 100 µM	as a substrate	Yes	did not inhibit	No	> 100 µM	identified as an inhibitor	Yes	≤ 100 µM	5.60 fold	4.53 fold	1.39 µM	–	–	–	–	Uptake activity remaining, OAT3 (OAT3 [1]; 100 μM): 24.5%; EC50 at 72 h (CYP1A2 mRNA; hepatocyte cultures): 1.88 µM; fold induction at 72 h (CYP1A2 mRNA; hepatocyte cultures): 12.2; Maximum fold induction of CYP3A4 gene expression (CYP3A4 mRNA; Donor 2): 3.40 fold; Maximum fold induction of CYP3A4 gene expression (CYP3A4 mRNA; Donor 3): 3.30 fold; Efflux remaining with zosuquidar (P-gp; Caco-2): < 55.3%; Efflux remaining with verapamil (P-gp; Caco-2, at 10 μM): 74.7%; potency estimated from few doses (BCRP; read-out: Estimated IC50, BCRP, estimated from two concentrations, Caco-2 cells): > 100 µM; Maximum fold induction of CYP2B6 gene expression (CYP2B6 mRNA; Donor 2): 4.80 fold; Emax, CYP2B6 gene expression (CYP2B6 mRNA; Donor 3): 5.78 fold; Maximum fold induction of CYP2B6 gene expression (CYP2B6 mRNA; Donor 3): 5.68 fold; EC50 (CYP2B6 mRNA; Donor 3): 1.48 µM
O=C(O)CCCc1ccccc1 [PB, sodium phenylbutyrate]	< 25 µM	inhibited	Yes	–	< 25 µM	not a substrate	No	did not inhibit	No	< 250 µM	not an inhibitor	No	≤ 250 µM	8.54 fold	24.4 fold	108 µM	84.7%	125%	–	–	Uptake activity remaining, OAT3 (OAT3 [1]; 25 μM): 44.3%; % remaining after 60 minutes (hrCYP2C19; human, 1 h, 5 µM, pH 7.4): greater than 90%; EC50 (CYP2B6 mRNA; Donor 1): 19.1 µM
O=C(O)Cc1ccccc1 [Phenylacetic acid, phenylacetic acid]	–	did not inhibit	No	do not identify phenylacetic acid as an inducer of CYP3A4	–	not a substrate	No	did not inhibit	No	–	not an inhibitor	No	≤ 500 µM	11.1 fold	–	–	199%	162%	not a substrate	No^a	EC50 at 72 h (CYP1A2 mRNA): 8.18 µM
tauroursodeoxycholic acid [TUDCA]	> 50 µM	inhibited	Yes	did not meet the classification requirements to be identified as an inducer	–	as a substrate	Yes	inhibited	Yes	–	not an inhibitor	No	550 µM	–	–	–	92.3%	111%	not a substrate	No	potency estimated from few doses (OAT3 [1]; estimated from two doses): > 50 µM; % Remaining of TA (hrCYP2C19; 0 min): 100%; % Remaining of TA (hrCYP2C19; 5 min): 96.1%; % Remaining of TA (hrCYP2C19; 10 min): 98.7%; % Remaining of TA (hrCYP2C19; 20 min): 94.8%; % Remaining of TA (hrCYP2C19; 30 min): 95.1%; Uptake activity remaining, MATE2-K (MATE2K; concentration not stated (5 and 50 μM tested)): 44.3%; potency estimated from few doses (MATE2K; [5]): < 50 µM; potency estimated from few doses (MATE2K; estimated from two doses): < 50 µM; Inducer of CYP2B6 (conclusion) (CYP2B6 mRNA; gene expression and enzyme activity, three donors): did not meet the classification requirements to be identified as an inducer
ursodeoxycholic acid	< 50 µM	inhibited	Yes	–	–	not a substrate	No	inhibited	Yes	–	not an inhibitor	No	≤ 250 µM	–	–	–	155%	228%	not a substrate	No	Uptake activity remaining, OAT3 (OAT3 [1]; 50 μM): 27.6%; potency estimated from few doses (OAT3 [1]; estimated from two doses): < 50 µM; potency estimated from few doses (MATE2K; [5]): > 500 µM; potency estimated from few doses (MATE2K; estimated from two doses): > 500 µM; BCRP activity, % of the control (BCRP; first assay, 500 μM): 130%; Effect on cell viability (human hepatocytes; Donor 1, 500 μM): affected cell viability
